Values joined by “and” are separate entries in the source; they are usually repeats but may differ in a detail not shown here. Equal values may be shown once.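 Tested at 5 concentrations; 48 h exposure; 96-well plates; endpoints linearly interpolated, else capped at highest concentration. The concentration for 50% growth inhibition is given as GI50. TGI marks complete inhibition of growth.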 Where a SMILES comes first, the peptide text is derived from it. The star is where a group is joined. Cbz = O=C(OCc1ccccc1)*; OBn = c1ccc(CO*)cc1
Assays:
Assay in all cases: NCI-60 cell line screen, 48 h
[1] = tested on: NCI-H460 lung
[2] = tested on: SK-MEL-5 melanoma
[3] = tested on: 786-0 renal
[4] = tested on: HOP-62 NSCLC
[5] = tested on: A498 renal
[6] = tested on: M14 melanoma
[7] = tested on: UACC-62 melanoma
[8] = tested on: ACHN renal
[9] = tested on: NCI/ADR-RES ovarian
[10] = tested on: MDA-MB-231 breast

SMILES	TGI [1]	TGI [2]	TGI [3]	TGI [4]	TGI [5]	TGI [6]	TGI [7]	TGI [8]	TGI [9]	TGI [10]	GI50 [10]	GI50 [1]	GI50 [2]	GI50 [9]	GI50 [4]	GI50 [5]	GI50 [7]	GI50 [6]
c1ccc2c(c1)nc(NC1CCCC1)c1[nH]c(C3CCCC3)nc12	27.1 µM	17.1 µM	20.7 µM	35.9 µM	43.1 µM	10 µM	29.8 µM	> 75.6 µM	–	–	–	–	–	–	–	–	–	–
c1ccc2c(c1)CCc1cc3cc4c(nc3nc1-2)-c1ccccc1CC4	> 100 µM	–	> 100 µM	> 100 µM	–	> 100 µM	> 100 µM	> 100 µM	–	–	–	–	–	–	–	–	–	–
O=C(c1ccccc1)c1ccc2nc(-c3c(Cl)c(Cl)c(Cl)c(Cl)c3C(=O)N/N=C/c3ccccc3)[nH]c2c1	–	33.4 µM	73.7 µM	99.7 µM	–	> 100 µM	–	49.2 µM	80 µM	79.2 µM	–	–	–	–	–	–	–	–
O=c1[nH]nc(-c2ccccc2)n1/N=C/c1c(O)ccc2ccccc12	–	> 100 µM	> 100 µM	> 100 µM	–	> 100 µM	> 100 µM	> 100 µM	> 100 µM	> 100 µM	–	–	–	–	–	–	–	–
NCCNc1cccc2ccccc12	> 100 µM	–	> 100 µM	> 100 µM	> 100 µM	> 100 µM	> 100 µM	> 100 µM	–	–	–	–	–	–	–	–	–	–
CC(C)(C)C(=O)ON1N=NC2C3CC(OCc4ccccc4)(OCc4ccccc4)C(O3)C21 (centres undefined)	60.4 µM	31.9 µM	36.4 µM	> 100 µM	> 100 µM	85.7 µM	44.9 µM	91.5 µM	–	–	–	–	–	–	–	–	–	–
Cc1cccc(C2=NC(C)(C)C(C)(C)N=C2c2cccc(C)n2)n1	> 100 µM	> 100 µM	> 100 µM	> 100 µM	> 100 µM	> 100 µM	> 100 µM	> 100 µM	–	–	–	–	–	–	–	–	–	–
COC(=O)/C=C/c1cc(O)c2c(c1)[C@H](C(=O)OC)[C@@H](c1ccc(O)c(O)c1)O2	24.5 µM	2.18 µM	> 100 µM	> 58.7 µM	> 28 µM	> 45.2 µM	> 59.5 µM	> 85.2 µM	–	> 100 µM	0.0497 µM	–	–	–	–	–	–	–
COC(=O)C(Cc1ccc(O)cc1)NC(=O)C(CC(=O)OCc1ccccc1)NC(=O)OCc1ccccc1 (centres undefined) (Cbz-Asp(OBn)-Tyr-OMe; configuration not given here)	25.9 µM	34.1 µM	32.1 µM	34.6 µM	62.4 µM	44.4 µM	–	34.8 µM	–	37.5 µM	–	–	–	–	–	–	–	–
Cc1cccc(NC(=O)C(=O)C(C(=O)c2ccccc2F)C2OC(=O)c3ccccc32)c1Cl (centres undefined)	> 100 µM	> 100 µM	–	> 100 µM	> 100 µM	> 100 µM	85.4 µM	> 100 µM	–	–	–	–	–	–	–	–	–	–
CCSC1=C(C)N(C=NC(C)(C)C)CC1	> 100 µM	> 100 µM	> 100 µM	> 100 µM	> 100 µM	> 100 µM	> 100 µM	> 100 µM	–	–	–	–	–	–	–	–	–	–
O=[Se](=O)c1ccccc1.O=[Se](=O)c1ccccc1.[Cu]	20 µM	34.9 µM	–	43.4 µM	38 µM	–	18.9 µM	–	30 µM	–	–	8 µM	19 µM	10.5 µM	26 µM	20.1 µM	6.82 µM	–
NC(=O)C#CC(N)=O	146 µM and 126 µM and > 100 µM	28.2 µM and > 100 µM	> 58 µM	211 µM and 170 µM and > 100 µM	197 µM and 154 µM and > 100 µM	37.5 µM	28.4 µM and 29.5 µM and 43 µM	> 100 µM	25.9 µM and 18 µM	–	–	38.3 µM and 32.8 µM and > 100 µM	15 µM and 54.6 µM	8.22 µM	57.4 µM	71 µM	–	–
COc1ccc2c(c1)N=C1CSC(c3ccccc3Cl)N1C2 (centres undefined)	15.4 µM	31.4 µM	31.6 µM	34.5 µM	–	28.3 µM	20.3 µM	41.8 µM	72.3 µM	> 100 µM	–	–	–	–	–	–	–	–
O=C1Nc2cc([N+](=O)[O-])ccc2NC1/C(=N\Nc1ccccc1)C(O)c1cccc([N+](=O)[O-])c1 (centres undefined)	> 100 µM	45.1 µM	> 100 µM	> 100 µM	–	> 100 µM	> 100 µM	> 100 µM	–	–	–	–	–	–	–	–	–	–
CCCCCCCCCCCCCCCCCCNc1ccn(C2OC(COP(=O)(O)OCC3OC(n4cc(C)c(=O)[nH]c4=O)CC3N=[N+]=[N-])C(O)C2O)c(=O)n1 (centres undefined)	36.6 µM	57.2 µM	> 100 µM	45 µM	–	36.1 µM	36.4 µM	> 100 µM	50 µM	56.7 µM	–	–	–	–	–	–	–	–
N#C[S-].[Nd+3].c1ccc(-c2ccccn2)nc1.c1ccc(-c2ccccn2)nc1.c1ccc(-c2ccccn2)nc1	37.3 µM	4.77 µM	–	–	–	5.96 µM	28.2 µM	–	–	–	–	4.25 µM	1.53 µM	–	–	–	5.26 µM	2.26 µM

— PubChem BioAssay (NCI)
